Legend:
[1] = Steady-state pharmacokinetics in healthy young and elderly subjects
[2] = system: ventricular repolarization, as measured by prolongation of the QT interval; assay: QT interval prolongation study in healthy young and elderly subjects
[3] = steady state (Days 7-9), ≧18 to ≦45 yrs (N = 16)

Row | SMILES | increase in rate and extent of absorption, elderly compared to younger subjects ([1]; after formulation 3A, steady state) | T1/2, least squares mean ([1]; steady state (Days 7-9), ≧65 to ≦80 yrs (N = 15)) | AUC(ss), least squares mean [1, 3] | Tmax(ss), least squares mean [1, 3] | QTcI difference between the elderly and young between quinine and placebo (baseline adjusted) ([2]; 30 minutes post dose) | QTcI difference between the elderly and young between quinine and placebo (baseline adjusted) ([2]; 48 hours post dose) | increase of QTcI over placebo ([2]; for the first 6 hours after dosing) | subjects with a QTcI greater than 500 msec ([2]; in vivo) | subjects with a maximum QTcI change from baseline of greater than 60 msec ([2]; in vivo) | maximal increase of QTcI over placebo ([2]; one hour post dose) | upper bound of the one sided confidence interval of maximal QTcI increase over placebo ([2]; one hour post dose) | QTcI difference between the elderly and young, mean increase ([2]; over 48 hours) | effect of age on QTc interval prolongation ([2]; patients ≧65 years v. younger patients) | increase of QTcI over placebo ([2]; up to 14 hours after dosing)
1 | C=C[C@@]1(O)CN2CC[C@H]1C[C@H]2[C@H](O)c1ccnc2ccc(OC)cc12 [3-OH Quinine, 3-hydroxyquinine] | approximately 25% | 18.7 h | – | – | – | – | – | – | – | – | – | – | – | –
2 | C=C[C@H]1C[N@@]2CC[C@H]1C[C@H]2[C@H](O)c1ccnc2ccc(OC)cc12 [Quinine, cinchonan-9-ol, 6′-methoxy-, (8α,9R)-] | – | – | 46100 ng·h/mL | 7780 s | 10.06 ms | -1.92 ms | above 20 msec | No subject | No subject | 28.3 ms | 31.83 ms | 3.92 ms | did not indicate that patients ≧65 years of age have significantly greater risk of QTc prolongation than younger patients | above 10 msecs
